In patent publication US20240059703A1 (AMGEN INC., priority 2021, published 2024):
Like-named read-outs stand apart in the source and are kept apart here.

How the values were obtained:
KRAS G12C = KRAS G12C (Homo sapiens (Human), UniProt P01116, C118A/G12C); test: 2 h coupled exchange assay; format: biochemical
Description: The term “2 h coupled exchange assay” or “20 h coupled exchange assay” as used herein refers to the assay described in the Section entitled “BIOLOGICAL EVALUATION.”

[1] = test system: MIA PaCa-2 (human pancreatic carcinoma) cells; test: Cell Viability Assay (CellTiter-Glo), MIA PaCa-2; format: cell-based
Description: (§1) Serially-diluted compound or DMSO was added to the cells, and plates were incubated at 37° C., 5% CO2 for 72 h. Cell viability was measured using a CellTiter-Glo® Luminescent Cell Viability Assay kit (Promega) according to the manufacturer's protocol. The luminescence signal of treated samples was normalized to DMSO control, and data were analyzed using a 4-parameter logistic model to calculate IC50 values.

[2] = test system: A549 (human lung carcinoma) cells; test: Cell Viability Assay (CellTiter-Glo), A549; format: cell-based
Description: as §1, with “MIA PaCa-2 (human pancreatic carcinoma; ATCC CRL-1420) or A549 (human lung carcinoma; ATCC CCL-185) cells were cultured in RPMI 1640 medium containing 10% fetal bovine serum and 1× penicillin/streptomycin/L-glutamine. Cells were seeded in 384-well plates at a density of 1.67E+04 cells/mL and incubated at 37° C., 5% CO2, overnight. Serially-diluted” for “Serially-diluted”

[3] = read-out: Avg 2 h Coupled exchange IC50, 2 h compound pre-incubation, SOS-mediated nucleotide exchange
[4] = Avg 2 h Coupled exchange IC50, 2 h compound pre-incubation, SOS-mediated nucleotide exchange
[5] = Avg 2 h Coupled exchange IC50, 2 h compound pre-incubation
[6] = read-out: Avg 2 h Coupled exchange IC50, 2 h compound pre-incubation

Compound	IC50 ([1]; 72 h)	IC50 ([2]; 72 h)	IC50 ([1]; Homo sapiens, MIA PaCa-2, 72 h)	IC50 ([2]; Homo sapiens, A549, 72 h)	IC50 (KRAS G12C; [5])	other results
7,7-dimethyl-4-(5-methyl-1H-indazol-4-yl)-2-(2-((^2H3)-2-propenoyl)-2,6-diazaspiro[3.4]octan-6-yl)-5,6,7,8-tetrahydro-3-quinolinecarbonitrile [Example 13-1]	0.065 µM	4.89 µM				IC50 (KRAS G12C; [3]): 0.036 µM
C=CC(=O)N1CC2(CCN(c3nc4c(c(-c5c(C)c(C)cc6cnn(C)c56)c3C)[C@@H]3CC[C@H]4C3)C2)C1 (atropisomer, axis not shown; (M)) [Example 2-111, (M)-1-(6-((1S,8R)-5-methyl-6-(1,5,6-trimethyl-1H-indazol-7-yl)-3-azatricyclo[6.2.1.0^2,7]undeca-2,4,6-trien-4-yl)-2,6-diazaspiro[3.4]octan-2-yl)-2-propen-1-one]			0.21 µM	10.9 µM		IC50 (KRAS G12C; [4]): 0.003 µM
C=CC(=O)N1CC2(CCN(c3nc4c(c(-c5c(C)c(Cl)cc6cnn(C)c56)c3F)CCN(C3COC3)C4)C2)C1 (atropisomer, axis not shown; (M)) [Example 14-107, (M)-1-(6-(4-(5-chloro-1,6-dimethyl-1H-indazol-7-yl)-3-fluoro-7-(3-oxetanyl)-5,6,7,8-tetrahydro-1,7-naphthyridin-2-yl)-2,6-diazaspiro[3.4]octan-2-yl)-2-propen-1-one]			0.03 µM	15.3 µM	0.013 µM	
C=CC(=O)N1CC2(CCN(c3nc4c(c(-c5ccc(F)cc5Cl)c3C#N)CCC(c3scnc3C)=C4)C2)C1 (atropisomer, axis not shown; (M)) [Example 23-32, (M)-4-(2-chloro-4-fluorophenyl)-7-(4-methyl-1,3-thiazol-5-yl)-2-(2-(2-propenoyl)-2,6-diazaspiro[3.4]octan-6-yl)-5,6-dihydro-3-quinolinecarbonitrile]	1.95 µM	5.5 µM			0.282 µM	
C=CC(=O)N1CC2(CCN(c3nc4c(c(-c5c(C)ccc6[nH]ncc56)c3C#N)CC(C)(C)C4)[C@@H]2C)C1 (atropisomer, axis not shown; (P)) [Example 13-54, (P)-6,6-dimethyl-4-(5-methyl-1H-indazol-4-yl)-2-((5R)-5-methyl-2-(2-propenoyl)-2,6-diazaspiro[3.4]octan-6-yl)-6,7-dihydro-5H-cyclopenta[b]pyridine-3-carbonitrile]			0.058 µM	> 5 µM		IC50 (KRAS G12C; [4]): 0.017 µM
C=CC(=O)N1CC2(CCN(c3nc4c(c(-c5ccc(F)cc5Cl)c3C#N)CCC(c3scnc3C)=C4)C2)C1 (atropisomer, axis not shown; (P)) [Example 23-33, (P)-4-(2-chloro-4-fluorophenyl)-7-(4-methyl-1,3-thiazol-5-yl)-2-(2-(2-propenoyl)-2,6-diazaspiro[3.4]octan-6-yl)-5,6-dihydro-3-quinolinecarbonitrile]	0.606 µM	> 5 µM			0.101 µM	
C=CC(=O)N1CC2(CCN(c3nc4c(c(-c5c(C)ccc6[nH]ncc56)c3C#N)CC[C@@H](C(F)(F)F)C4)C2)C1 (racemic) [Example 13-10, (7R)-4-(5-methyl-1H-indazol-4-yl)-2-(2-(2-propenoyl)-2,6-diazaspiro[3.4]octan-6-yl)-7-(trifluoromethyl)-5,6,7,8-tetrahydro-3-quinoline-carbonitrile|(7S)-4-(5-methyl-1H-indazol-4-yL)-2-(2-(2-propenoyl)-2,6-diazaspiro[3.4]octan-6-yl)-7-(trifluoromethyl)-5,6,7,8-tetrahydro-3-quinolinecarbonitrile]	0.246 µM	> 5 µM				IC50 (KRAS G12C; [3]): 0.071 µM
C=CC(=O)N1CC2(CCN(c3nc4c(c(-c5cc(O)cc6ccccc56)c3Cl)COC(C)(C)C4)C2)C1 (single isomer, unassigned) [Example 2-78, (P)-1-(6-(3-chloro-4-(3-hydroxy-1-naphthalenyl)-7,7-dimethyl-7,8-dihydro-5H-pyrano[4,3-b]pyridin-2-yl)-2,6-diazaspiro[3,4]octan-2-yl)-2-propen-1-one]			0.014 µM	> 5 µM		
C=CC(=O)N1CC2(CCN(c3nc4c(c(-c5cc(O)cc6ccccc56)c3F)C[C@H]3C[C@@H]4C3(C)C)C2)C1 (single isomer, unassigned) [Example 14-77]				> 5 µM		
C=CC(=O)N1CC2(CCN(c3nc4c(c(-c5cc(O)cc6ccccc56)c3Cl)COC(C)(C)C4)C2)C1 [Example 2-76, 1-(6-(3-chloro-4-(3-hydroxy-1-naphthalenyl)-7,7-dimethyl-7,8-dihydro-5H-pyrano[4,3-b]pyridin-2-yl)-2,6-diazaspiro[3.4]octan-2-yl)-2-propen-1-one]			0.026 µM	> 5 µM		
C=CC(=O)N1CC2(CCN(c3nc4c(c(-c5cc(O)cc6ccccc56)c3F)C[C@H]3C[C@@H]4C3(C)C)C2)C1 [Example 14-1, 1-(6-((1R,9R)-5-fluoro-6-(3-hydroxy-1-naphthalenyl)-10,10-dimethyl-3-azatricyclo[7.1.1.0^2,7]undeca-2,4,6-trien-4-yl)-2,6-diazaspiro[3.4]octan-2-yl)-2-propen-1-one]			0.039 µM	> 5 µM		
(M)-1-(6-(4-(5-chloro-1-methyl-1H-indazol-7-yl)-3,7,7-trimethyl-7,8-dihydro-5H-pyrano[4,3-b]pyridin-2-yl)-2,6-diazaspiro[3.4]octan-2-yl)-2-propen-1-one [Example 2-33]						IC50 (KRAS G12C; [3]): 17.4 µM
(P)-1-(6-(4-(5-chloro-1-methyl-1H-indazol-7-yl)-3,7,7-trimethyl-7,8-dihydro-5H-pyrano[4,3-b]pyridin-2-yl)-2,6-diazaspiro[3.4]octan-2-yl)-2-propen-1-one [Example 2-34]						IC50 (KRAS G12C; [3]): 0.427 µM

The next lines start with results.

IC50 ([1]; 72 h)	IC50 ([2]; 72 h)	IC50 ([1]; Homo sapiens, MIA PaCa-2, 72 h)	IC50 ([2]; Homo sapiens, A549, 72 h)	IC50 (KRAS G12C; [5])	Compound	other results
0.028 µM	25 µM				C=CC(=O)N1CC2(CCN(c3nc4c(c(-c5c(C)ccc6cnn(C)c56)c3C)CCN(C3(C)COC3)C4)C2)C1 (atropisomer, axis not shown; (M)) [Example 36-2, (M)-1-(6-(4-(1,6-dimethyl-H-indazol-7-yl)-3-methyl-7-(3-methyl-3-oxetanyl)-5,6,7,8-tetrahydro-1,7-naphthyridin-2-yl)-2,6-diazaspiro[3.4]octan-2-yl)-2-propen-1-one]	IC50 (KRAS G12C; [6]): 0.087 µM
0.919 µM	> 5 µM				C=CC(=O)N1CC2(CCN(c3nc4ccccc4c(-c4c(C)ccc5[nH]ncc45)c3C=C)C2)C1 (atropisomer, axis not shown; (P)) [Example 26-1, (P)-1-(6-(3-ethenyl-4-(5-methyl-1H-indazol-4-yl)-2-quinolinyl)-2,6-diazaspiro[3.4]octan-2-yl)-2-propen-1-one]	IC50 (KRAS G12C; [6]): 0.14 µM
11 µM	18.8 µM				C=CC(=O)N1CC2(CCN(c3nc4c(c(-c5c(C)ccc6cnn(C)c56)c3C)CCN(C3(C)COC3)C4)C2)C1 (atropisomer, axis not shown; (P)) [Example 36-3, (P)-1-(6-(4-(1,6-dimethyl-1H-indazol-7-yl)-3-methyl-7-(3-methyl-3-oxetanyl)-5,6,7,8-tetrahydro-1,7-naphthyridin-2-yl)-2,6-diazaspiro[3.4]octan-2-yl)-2-propen-1-one]	IC50 (KRAS G12C; [6]): 65.3 µM
				0.487 µM	Cc1ccc2[nH]ncc2c1-c1c(C#N)c(N2CCC3(CN(C(=O)/C=C/COC(F)F)C3)C2)nc2c1CCC(C)(C)C2 [Example 30-1, 2-(2-((2E)-4-(difluoromethoxy)-2-butenoyl)-2,6-diazaspiro[3.4]octan-6-yl)-7,7-dimethyl-4-(5-methyl-1H-indazol-4-yl)-5,6,7,8-tetrahydro-3-quinolinecarbonitrile]	
				0.599 µM	Cc1ccc2[nH]ncc2c1-c1c(Cl)c(N2CCC3(CN(C(=O)/C=C/CN(C)C)C3)C2)cc2c1OCCC2 [Example 32-1, (2E)-1-(6-(7-chloro-8-(5-methyl-1H-indazol-4-yl)-3,4-dihydro-2H-chromen-6-yl)-2,6-diazaspiro[3.4]octan-2-yl)-4-(dimethylamino)-2-buten-1-one]	
				0.619 µM	C=CC(=O)N1CC2(CCN(c3nc4c(c(-c5[nH]c(=O)c(Br)c6ccccc56)c3C#N)CCC(C)(C)C4)C2)C1 [Example 33-1, 4-(4-bromo-3-oxo-2,3-dihydro-1-isoquinolinyl)-7,7-dimethyl-2-(2-(2-propenoyl)-2,6-diazaspiro[3.4]octan-6-yl)-5,6,7,8-tetrahydro-3-quinolinecarbonitrile]	
				0.659 µM	C=CC(=O)N1CC2(CCN(c3nc4c(c(-c5[nH]c(=O)cc6ccccc56)c3C#N)CCC(C)(C)C4)C2)C1 [Example 33-2, 7,7-dimethyl-4-(3-oxo-2,3-dihydro-1-isoquinolinyl)-2-(2-(2-propenoyl)-2,6-diazaspiro[3.4]octan-6-yl)-5,6,7,8-tetrahydro-3-quinolinecarbonitrile]	
